Data on one molecule can be found in publication PMC10877733, “Discovery and Characterization of VU0542270, the First Selective Inhibitor of Vascular Kir6.1/SUR2B KATP Channels” (Molecular Pharmacology, 2024).

Structures are written as SMILES. Entries after “also recorded” stand apart in the source; their conditions may differ.

This assay concerns isolated mouse ductus arteriosus vessels. The experiment in a line: Pressure myography of isolated ductus arteriosus vessels. The note with it: term gestation mouse DA. Here is the method:
CD-1 mice were maintained at Vanderbilt University Medical Center in accordance with protocols approved by the Institutional Animal Care and Use Committee. Timed matings were performed to produce offspring at specific stages of development. The presence of a vaginal plug was designated as embryonic day 1.
Term-gestation (embryonic day 19) fetal mouse DAs were isolated and mounted on glass pipet tips in microvessel perfusion chambers as previously reported ([Hooper et al., 2016]). Deoxygenated Krebs buffer was warmed to 37°C and circulated throughout the chamber. Vessels were pressurized in a stepwise manner to physiologic neonatal mouse mean arterial pressure (20 mmHg) and then challenged with 50 mM KCl to test reactivity. […] For dose-response studies, vessels were first dilated by circulating Krebs buffer bubbled with 95% nitrogen, 5% CO2 to mimic the hypoxic conditions of the womb. […] Following each dose, lumen diameters were allowed to plateau (approximately 20 minutes) before the next dose was added. Continuous lumen diameter measurements were recorded using a digital image capture system (IonOptix). An N of >6 vessels from at least three different litters was used for each experimental condition. Changes in lumen diameter are represented as the percent change in diameter compared with the baseline lumen diameter of vessels prior to drug exposure. […] Values represent mean ± S.D.

`Cc1nc(-c2cccs2)sc1CNC(=O)Nc1cccs1` [VU0542270]: for the setting “increasing concentrations, compound alone”, the “ductus arteriosus vessel constriction” value was “induced ductus arteriosus constriction in a dose-dependent manner; also recorded: constricted in a concentration-dependent manner”. In addition, the “ductus arteriosus vessel constriction in the presence of pinacidil” value (with 10 µM pinacidil) is reported as “substantially blunted vasoconstrictive effects”.
